Six molecules from patent US10077261B2, “Imidazolin-5-one derivative useful as FASN inhibitors for the treatment of cancer” (Janssen Pharmaceutica NV, priority 2012, dated 2018) can be followed below.

Experiment [1] deals with T1, hFASN enzyme (full length) (Homo sapiens, UniProt P49327).
T1 construct: 10 μL hFASN enzyme (full length, 300 ng, purified in house); made in house
In words: Fatty Acid Synthase (FASN) inhibition scintillation proximity assay. The experiment is classed as biochemical. The note with it: for inhibition at 10 µM: read-out: Human FASN % inhibition @ 10 μM, 10 μM test compound; for IC50: read-out: Human FASN pIC50 (converted). The method in brief: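 Full-length in-house purified enzyme (300 ng) was tested in 100 mM KH2PO4 pH 7.5, 1 mM DTT with ³H-acetyl-CoA and malonyl-CoA as substrates; compounds ranged 0.01–30 μM. Reactions were stopped with streptavidin imaging beads, read by LEADseeker at 610 nm, and fitted to a 4-parameter logistic curve.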

Experiment [2] deals with A2780 ovarian cells. The experiment in a line: A2780 ovarian cell proliferation assay in lipid reduced medium, with palmitate (MTT). Particulars: Homo sapiens, A2780, 96 h; read-out: pIC50 A2780 Ovarian Cell, With Palmitate (converted). The experiment is classed as cell-based. In outline: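 Seeded cells were switched next day to lipid-reduced serum, exposed to compound and 25 μM palmitate complexed with fatty-acid-free BSA, and incubated 96 h. Proliferation was then determined by MTT absorbance at 544 nm, with a best-fit curve of signal against concentration.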

Experiment [3] relates to A2780 ovarian cells. The experiment in a line: A2780 ovarian cell proliferation assay in lipid reduced medium, without palmitate (MTT). It counts as cell-based. The note with it: Homo sapiens, A2780, 96 h; read-out: pIC50 A2780 Ovarian Cell, Without Palmitate (converted).
For experiment [4], the system named is LNCaP-Vancouver prostate cells. In words: In vitro LNCaP Vancouver prostate cell proliferation assay in lipid reduced medium. It counts as cell-based. Particulars: read-out: pIC50 LNCaP_Vancouver prostate cell (converted).
The subject of experiment [5] is PC-3M-Luc-C6 prostate cells. The experiment in a line: In vitro PC-3M-Luc-C6 prostate cell proliferation assay in lipid reduced medium. It counts as cell-based. Particulars: 96 h, read-out: pIC50 PC-3M-Luc-C6 prostate cell (converted).
Experiment [6] concerns the target Fatty Acid Synthase Keto-reductase Domain (FASN KR) (Homo sapiens, UniProt P49327). In words: Fatty Acid Synthase keto-reductase domain (FASN KR) inhibition, NADPH oxidation at 340 nm.
Protocol: After 20 minutes incubation at room temperature the plate was measured again (T2).
The decrease in absorbance was calculated as (Absorbance before incubation T1)−(Absorbance following incubation T2).
A plot of Controlmin versus test compound concentration was fitted to a 4-parameter logistic curve using a non-linear least squares regression method.

Sequence of Fatty Acid Synthase Keto-reductase Domain (FASN KR) (P49327 whole entry, the tested form may be a part): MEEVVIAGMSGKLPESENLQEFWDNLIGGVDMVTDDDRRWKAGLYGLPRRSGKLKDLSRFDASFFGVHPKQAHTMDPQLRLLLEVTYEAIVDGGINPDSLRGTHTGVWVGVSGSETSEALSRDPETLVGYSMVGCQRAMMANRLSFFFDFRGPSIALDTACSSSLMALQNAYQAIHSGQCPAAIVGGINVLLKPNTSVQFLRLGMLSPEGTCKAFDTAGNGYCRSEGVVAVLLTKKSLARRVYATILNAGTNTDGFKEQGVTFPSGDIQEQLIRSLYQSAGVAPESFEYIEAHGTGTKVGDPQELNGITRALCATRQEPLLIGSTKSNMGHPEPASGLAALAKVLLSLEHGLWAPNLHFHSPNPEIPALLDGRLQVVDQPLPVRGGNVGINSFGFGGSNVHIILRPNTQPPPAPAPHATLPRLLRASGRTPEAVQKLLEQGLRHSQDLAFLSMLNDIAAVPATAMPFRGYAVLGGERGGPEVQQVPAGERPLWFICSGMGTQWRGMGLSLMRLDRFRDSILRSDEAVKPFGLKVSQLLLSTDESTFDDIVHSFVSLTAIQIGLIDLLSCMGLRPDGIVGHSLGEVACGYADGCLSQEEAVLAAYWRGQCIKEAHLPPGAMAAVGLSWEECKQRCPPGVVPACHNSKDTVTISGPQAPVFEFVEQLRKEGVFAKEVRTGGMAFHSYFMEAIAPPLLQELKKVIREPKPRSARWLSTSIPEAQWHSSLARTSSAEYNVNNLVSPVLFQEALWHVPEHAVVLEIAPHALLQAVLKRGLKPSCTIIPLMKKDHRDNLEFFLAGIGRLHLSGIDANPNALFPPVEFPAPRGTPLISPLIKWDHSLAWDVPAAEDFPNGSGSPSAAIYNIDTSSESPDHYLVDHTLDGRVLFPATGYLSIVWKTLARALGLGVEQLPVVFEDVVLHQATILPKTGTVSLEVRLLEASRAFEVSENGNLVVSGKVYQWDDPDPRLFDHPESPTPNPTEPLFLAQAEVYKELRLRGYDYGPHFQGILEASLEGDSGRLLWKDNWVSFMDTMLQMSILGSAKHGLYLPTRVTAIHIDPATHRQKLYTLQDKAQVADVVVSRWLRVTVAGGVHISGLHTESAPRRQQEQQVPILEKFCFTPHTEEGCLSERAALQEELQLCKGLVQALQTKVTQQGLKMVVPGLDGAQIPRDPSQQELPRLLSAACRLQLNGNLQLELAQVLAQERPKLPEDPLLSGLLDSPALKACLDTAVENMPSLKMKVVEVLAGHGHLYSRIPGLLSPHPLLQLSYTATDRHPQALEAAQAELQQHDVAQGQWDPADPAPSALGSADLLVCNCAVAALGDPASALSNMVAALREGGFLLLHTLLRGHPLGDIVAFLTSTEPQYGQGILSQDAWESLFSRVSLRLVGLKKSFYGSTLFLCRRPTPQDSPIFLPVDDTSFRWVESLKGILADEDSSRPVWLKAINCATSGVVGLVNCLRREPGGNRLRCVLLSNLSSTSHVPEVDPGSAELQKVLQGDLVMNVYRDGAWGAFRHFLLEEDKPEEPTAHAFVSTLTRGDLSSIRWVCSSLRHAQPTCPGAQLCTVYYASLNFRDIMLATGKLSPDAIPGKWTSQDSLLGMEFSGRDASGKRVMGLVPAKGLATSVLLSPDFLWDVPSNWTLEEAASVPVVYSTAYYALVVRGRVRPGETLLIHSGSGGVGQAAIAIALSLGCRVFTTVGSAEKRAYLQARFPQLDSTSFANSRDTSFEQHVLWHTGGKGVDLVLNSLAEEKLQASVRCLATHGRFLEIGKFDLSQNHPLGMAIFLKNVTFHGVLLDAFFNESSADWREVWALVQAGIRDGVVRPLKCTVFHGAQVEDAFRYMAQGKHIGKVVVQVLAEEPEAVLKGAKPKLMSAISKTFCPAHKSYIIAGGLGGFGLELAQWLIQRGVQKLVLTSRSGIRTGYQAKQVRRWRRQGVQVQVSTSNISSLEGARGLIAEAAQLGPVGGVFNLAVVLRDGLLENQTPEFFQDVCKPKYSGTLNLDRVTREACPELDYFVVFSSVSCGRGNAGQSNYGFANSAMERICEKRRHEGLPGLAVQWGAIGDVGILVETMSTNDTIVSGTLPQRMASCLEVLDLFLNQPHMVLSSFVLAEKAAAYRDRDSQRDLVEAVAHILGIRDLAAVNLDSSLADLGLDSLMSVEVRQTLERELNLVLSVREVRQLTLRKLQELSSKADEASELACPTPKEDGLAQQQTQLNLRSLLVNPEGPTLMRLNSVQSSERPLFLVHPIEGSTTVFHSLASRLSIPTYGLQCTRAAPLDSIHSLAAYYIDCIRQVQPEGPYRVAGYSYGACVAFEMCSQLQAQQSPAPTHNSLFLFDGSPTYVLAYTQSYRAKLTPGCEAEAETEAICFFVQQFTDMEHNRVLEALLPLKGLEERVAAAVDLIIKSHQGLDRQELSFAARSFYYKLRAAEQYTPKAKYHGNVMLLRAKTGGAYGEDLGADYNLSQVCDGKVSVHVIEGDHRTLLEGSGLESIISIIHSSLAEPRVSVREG
T1 sequence (P49327 whole entry): as the sequence (P49327 whole entry, the tested form may be a part) above

Turning to `O=C(C1CC1)N1CC[C@@H](CN2C(=O)C3(CC3)N=C2c2ccc(-c3ccc4cc[nH]c4c3)cn2)C1` [compound 428, 6-{[(3R)-1-(Cyclopropylcarbonyl)pyrrolidin-3-yl]methyl}-5-[5-(1H-indol-6-yl)pyridin-2-yl]-4,6-diazaspiro[2.4]hept-4-en-7-one], in experiment [1], the inhibition at 10 µM came to 101%. Besides, the IC50 was 138 nM in experiment [1]; greater than 10 µM with A2780 ovarian cells [2]; roughly 1100 nM with A2780 ovarian cells [3]; 2820 nM in experiment [4]; 794 nM in experiment [5]; 589 nM in experiment [6].

As for `Cc1cc2cc(-c3ccc(C4=NC5(CC5)C(=O)N4CC4CN(C(=O)C5CC5)C4)cc3)ccc2s1` [compound 432, 6-{[1-(Cyclopropylcarbonyl)azetidin-3-yl]methyl}-5-[4-(2-methyl-1-benzothiophen-5-yl)phenyl]-4,6-diazaspiro[2.4]hept-4-en-7-one], the inhibition at 10 µM in experiment [1] worked out at 98%. The IC50 was 141 nM in experiment [1]; greater than 6.17 µM in the experiment with A2780 ovarian cells [2]; 1510 nM with A2780 ovarian cells [3]; 2040 nM in experiment [4]; 871 nM in experiment [5]; 447 nM in experiment [6].

`O=C(C1CC1)N1CC(CN2C(=O)C3(CC3)N=C2c2ccc(-c3ccc4[nH]ccc4c3)c(F)c2)C1` [compound 440, 6-{[1-(Cyclopropylcarbonyl)azetidin-3-yl]methyl}-5-[3-fluoro-4-(1H-indol-5-yl)phenyl]-4,6-diazaspiro[2.4]hept-4-en-7-one]: the inhibition at 10 µM in experiment [1] was 97%. For the same molecule, the IC50 in experiment [1] was 195 nM; in the experiment with A2780 ovarian cells [2] it was greater than 10 µM; in the experiment with A2780 ovarian cells [3] it was 95.5 nM; in experiment [4], 1150 nM; in experiment [5] it was 234 nM; in experiment [6], 214 nM.

For the molecule `Cc1cc(C2=NC3(CC3)C(=O)N2C[C@@H]2CCN(C(=O)C3CC3)C2)ccc1-c1ccc2[nH]ncc2c1` [compound 444, 6-{[(3R)-1-(Cyclopropylcarbonyl)pyrrolidin-3-yl]methyl}-5-[4-(1H-indazol-5-yl)-3-methylphenyl]-4,6-diazaspiro[2.4]hept-4-en-7-one], the inhibition at 10 µM in experiment [1] was found to be 95%. The IC50 in experiment [1] was 251 nM; in the experiment on A2780 ovarian cells [2] it was greater than 10 µM; in the experiment with A2780 ovarian cells [3], roughly 209 nM; in experiment [4] it was 1820 nM; in experiment [5], 417 nM; in experiment [6] it was 562 nM.

As for `Cc1cc(C2=NC3(CC3)C(=O)N2C[C@@H]2CCN(C(=O)C3CC3)C2)ccc1-c1cccc2[nH]ncc12` [compound 445, 6-{[(3R)-1-(Cyclopropylcarbonyl)pyrrolidin-3-yl]methyl}-5-[4-(1H-indazol-4-yl)-3-methylphenyl]-4,6-diazaspiro[2.4]hept-4-en-7-one], in experiment [1], the inhibition at 10 µM was determined as 100%. The IC50 in experiment [1] was 182 nM; with A2780 ovarian cells [2], greater than 10 µM; with A2780 ovarian cells [3], 67.6 nM; in experiment [4] it was 1170 nM; in experiment [5], 234 nM; in experiment [6], 209 nM.

`Nc1cc(-c2ccc(C3=NC4(CC4)C(=O)N3C[C@@H]3CCN(C(=O)C4CC4)C3)cc2)ccn1` [compound 452, 5-[4-(2-Aminppyridin-4-yl)phenyl]-6-{[(3R)-1-(cyclopropylcarbonyl)pyrrolidin-3-yl]methyl}-4,6-diazaspiro[2.4]hept-4-en-7-one]: the inhibition at 10 µM in experiment [1] was found to be 97%. Moreover, the IC50 in experiment [1] is 229 nM; with A2780 ovarian cells [2], greater than 10 µM; with A2780 ovarian cells [3], 631 nM; in experiment [4] it was 2040 nM; in experiment [5] it was 550 nM; in experiment [6] it was 525 nM.
